Experiment [1] deals with Luciferin 4-monooxygenase (Photinus pyralis, UniProt P08659). The experiment can be described thus: firefly luciferase enzyme inhibitors, dose response, biochemical, luminescence (AID 1891).
The nature of experiment [2]: Luminescence Cell-Based Dose Confirmation HTS to Identify Inhibitors of Platelet Dense Granule Release. [Related pubchem assays: 1663 (Primary HTS), 1678 (Summary of Project)]. The format is functional.
Experiment [3] addresses T1, Corticotropin-releasing factor receptor 2/Corticotropin-releasing factor-binding protein (Homo sapiens, UniProt P24387+Q13324).
T1 sequence (Q13324 whole entry): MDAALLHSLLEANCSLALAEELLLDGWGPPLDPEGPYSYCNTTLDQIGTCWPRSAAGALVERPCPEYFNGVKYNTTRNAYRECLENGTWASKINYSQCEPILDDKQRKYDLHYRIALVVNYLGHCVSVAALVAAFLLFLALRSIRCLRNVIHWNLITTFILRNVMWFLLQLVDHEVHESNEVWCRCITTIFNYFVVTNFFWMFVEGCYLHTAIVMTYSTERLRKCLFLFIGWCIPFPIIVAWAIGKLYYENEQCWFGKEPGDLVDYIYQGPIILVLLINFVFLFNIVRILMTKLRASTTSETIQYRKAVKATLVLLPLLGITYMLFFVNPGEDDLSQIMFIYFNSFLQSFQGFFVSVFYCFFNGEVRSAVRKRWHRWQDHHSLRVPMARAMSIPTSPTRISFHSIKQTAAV
T1 sequence (P24387 whole entry): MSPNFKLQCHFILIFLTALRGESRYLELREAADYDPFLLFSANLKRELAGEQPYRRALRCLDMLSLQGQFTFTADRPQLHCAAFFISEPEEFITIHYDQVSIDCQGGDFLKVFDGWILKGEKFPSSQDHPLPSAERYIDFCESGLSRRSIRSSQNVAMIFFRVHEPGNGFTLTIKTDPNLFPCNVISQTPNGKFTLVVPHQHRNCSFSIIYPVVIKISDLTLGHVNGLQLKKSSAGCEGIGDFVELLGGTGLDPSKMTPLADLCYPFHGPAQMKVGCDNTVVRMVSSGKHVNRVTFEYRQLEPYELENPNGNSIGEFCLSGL
The experiment can be described thus: Dose Response confirmation of uHTS hits for small molecule antagonists of the CRF-binding protein and CRF-R2 receptor complex. Format: functional. The conditions noted are these: read-out: IC50_Mean.

The target in experiment [4] is T1, Corticotropin-releasing factor receptor 2/Corticotropin-releasing factor-binding protein. As to the kind of experiment: activators of CRF receptor 2 with binding protein – uHTS hits, confirmation (AID 602473). The note with it: read-out: EC50_Mean. The format is functional.
Experiment [5] is described as follows: CRF-BP/CRF-R2 complex antagonists, dose response, cell-based, uHTS hits, 384-well (AID 651639). Format: functional, Homo sapiens. The note with it: read-out: IC50_Mean.
In experiment [6] the target is T2, Probable nicotinate-nucleotide adenylyltransferase (Staphylococcus aureus (strain N315), UniProt P65502). Format: functional, Staphylococcus aureus subsp. aureus N315.
Experiment [7] deals with T2, Probable nicotinate-nucleotide adenylyltransferase. Format: functional, Staphylococcus aureus subsp. aureus N315. The note with it: read-out: IC50_Mean.
The target of experiment [8] is Melanocortin receptor 4 (Homo sapiens, UniProt P32245). The format is functional, cell-based.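 Also: Cell-based assay with luminescence read-out, confirmatory dose-response testing for agonist activity of biased ligands at MC4R; human U2OS cells with tagged receptor and beta-arrestin; potency of agonists that increase receptor coupling to beta-arrestin.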
In experiment [9] the target is Cytochrome P450 2C9 (Homo sapiens, UniProt P11712).
In experiment [10] the target is Cytochrome P450 2D6 (Homo sapiens, UniProt P10635).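 Also: CYP2D6 member of a cytochrome P450 panel assay.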
The target of experiment [11] is T3, Cytochrome P450 1A2 (Homo sapiens, UniProt P05177).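 Also: PubChem cytochrome P450 panel assay, CYP1A2 panel member.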
T3 sequence (P05177 whole entry): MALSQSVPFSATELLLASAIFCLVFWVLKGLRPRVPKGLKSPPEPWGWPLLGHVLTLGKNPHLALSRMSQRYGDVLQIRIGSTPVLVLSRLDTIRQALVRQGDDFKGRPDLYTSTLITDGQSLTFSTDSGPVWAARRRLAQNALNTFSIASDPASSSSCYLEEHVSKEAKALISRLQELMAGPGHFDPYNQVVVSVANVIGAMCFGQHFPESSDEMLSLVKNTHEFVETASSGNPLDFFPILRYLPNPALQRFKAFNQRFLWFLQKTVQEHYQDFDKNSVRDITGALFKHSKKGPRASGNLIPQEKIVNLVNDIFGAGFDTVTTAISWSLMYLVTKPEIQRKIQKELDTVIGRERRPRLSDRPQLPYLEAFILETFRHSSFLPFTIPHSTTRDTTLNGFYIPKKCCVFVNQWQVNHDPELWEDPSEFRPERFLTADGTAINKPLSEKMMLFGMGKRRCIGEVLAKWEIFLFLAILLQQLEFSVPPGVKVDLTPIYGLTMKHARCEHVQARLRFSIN

Experiment [12] has as its target Cytochrome P450 3A4 (Homo sapiens, UniProt P08684).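 Also: CYP3A4 tested as one member of a cytochrome P450 panel screen.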
In experiment [13] the target is T4, RNA-binding protein pos-1 (Caenorhabditis elegans, UniProt G5EF15).
T4 sequence (G5EF15 whole entry): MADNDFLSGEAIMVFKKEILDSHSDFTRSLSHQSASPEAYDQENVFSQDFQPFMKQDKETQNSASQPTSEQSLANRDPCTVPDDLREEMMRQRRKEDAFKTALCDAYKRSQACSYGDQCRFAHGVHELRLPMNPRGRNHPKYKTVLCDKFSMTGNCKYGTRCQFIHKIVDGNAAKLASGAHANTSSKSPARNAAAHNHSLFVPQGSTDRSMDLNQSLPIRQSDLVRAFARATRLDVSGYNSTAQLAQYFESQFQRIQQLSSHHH
The experiment can be described thus: inhibitors of POS-1/mex-3 RNA binding, dose response, biochemical, fluorescence polarization (AID 1964).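 Also: purified POS-1 fused to maltose binding protein made in E. coli; potency of compounds blocking POS-1 binding to fluorescent RNA.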

The target of experiment [14] is T5, Zinc finger protein mex-5 (Caenorhabditis elegans, UniProt Q9XUB2).
T5 sequence (Q9XUB2 whole entry): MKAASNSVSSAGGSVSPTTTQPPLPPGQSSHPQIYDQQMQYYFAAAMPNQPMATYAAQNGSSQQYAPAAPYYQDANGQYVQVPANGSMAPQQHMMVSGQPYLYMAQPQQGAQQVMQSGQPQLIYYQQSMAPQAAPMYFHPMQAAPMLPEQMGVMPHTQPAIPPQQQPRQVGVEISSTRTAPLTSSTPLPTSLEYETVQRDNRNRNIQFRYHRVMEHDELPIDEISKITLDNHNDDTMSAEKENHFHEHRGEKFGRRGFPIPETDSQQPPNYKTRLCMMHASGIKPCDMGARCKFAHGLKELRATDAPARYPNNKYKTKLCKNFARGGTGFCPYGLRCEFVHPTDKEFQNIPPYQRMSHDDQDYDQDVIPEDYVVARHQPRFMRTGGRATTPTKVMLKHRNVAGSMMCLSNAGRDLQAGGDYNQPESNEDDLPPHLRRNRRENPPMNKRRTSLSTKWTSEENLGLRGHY
As to the kind of experiment: MEX-5/TCR-2 RNA interaction inhibitors, dose response, biochemical, C. elegans, fluorescence polarization (AID 1960). A general note: In fluorescence polarisation assays a small probe gives low polarisation when free and higher when bound to something large.

Experiment [15] concerns the target 26S proteasome non-ATPase regulatory subunit 14 (Homo sapiens, UniProt O00487). The experiment can be described thus: inhibition of proteasome subunit RPN11 – biochemical, fluorescence polarization, uHTS hits, confirmation (AID 602368). Format: functional.
The target of experiment [16] is 72 kDa type IV collagenase (Homo sapiens, UniProt P08253). The experiment can be described thus: Dose Response validation of uHTS RPN11 inhibitor hits using a MMP-2 Fluorescence assay. Format: functional.
The target of experiment [17] is Prothrombin (Bos taurus, UniProt P00735). As to the kind of experiment: thrombin inhibition, dose response, biochemical, fluorescence polarization, uHTS hits (AID 602369). The format is functional.

Active and inactive are the calls of the source. Where only a bound is given, the exact number is not on record here.

The AC50 is the concentration at which the activity in the assay is half-maximal.

T2 sequence (P65502 whole entry): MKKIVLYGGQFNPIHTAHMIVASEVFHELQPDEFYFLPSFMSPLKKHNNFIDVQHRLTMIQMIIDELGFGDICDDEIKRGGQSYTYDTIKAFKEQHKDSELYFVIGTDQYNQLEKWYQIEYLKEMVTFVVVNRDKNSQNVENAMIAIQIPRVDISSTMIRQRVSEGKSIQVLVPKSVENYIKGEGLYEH
Chain of Melanocortin receptor 4 (P32245 whole entry): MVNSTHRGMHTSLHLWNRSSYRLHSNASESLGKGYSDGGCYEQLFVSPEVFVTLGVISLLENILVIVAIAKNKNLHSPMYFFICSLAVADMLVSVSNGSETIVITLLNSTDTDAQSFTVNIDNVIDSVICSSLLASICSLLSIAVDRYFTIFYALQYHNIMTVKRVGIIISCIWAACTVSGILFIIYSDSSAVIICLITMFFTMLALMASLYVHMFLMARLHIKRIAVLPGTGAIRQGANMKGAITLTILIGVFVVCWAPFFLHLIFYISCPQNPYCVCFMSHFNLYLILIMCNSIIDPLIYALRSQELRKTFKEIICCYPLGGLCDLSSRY
Chain of Cytochrome P450 2C9 (P11712 whole entry): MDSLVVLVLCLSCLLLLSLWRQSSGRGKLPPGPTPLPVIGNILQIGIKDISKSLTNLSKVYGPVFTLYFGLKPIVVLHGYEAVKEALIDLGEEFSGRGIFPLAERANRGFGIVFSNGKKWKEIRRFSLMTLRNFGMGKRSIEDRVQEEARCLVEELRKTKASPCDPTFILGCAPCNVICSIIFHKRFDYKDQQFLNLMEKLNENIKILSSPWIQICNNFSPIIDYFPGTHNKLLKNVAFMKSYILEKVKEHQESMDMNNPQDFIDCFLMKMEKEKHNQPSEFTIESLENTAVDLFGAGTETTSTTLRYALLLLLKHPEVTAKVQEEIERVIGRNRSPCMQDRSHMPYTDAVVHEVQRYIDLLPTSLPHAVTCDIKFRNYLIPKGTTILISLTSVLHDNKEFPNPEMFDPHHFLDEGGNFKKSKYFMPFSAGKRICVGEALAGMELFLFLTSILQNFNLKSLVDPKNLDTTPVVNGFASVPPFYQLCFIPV
Chain of 26S proteasome non-ATPase regulatory subunit 14 (O00487 whole entry): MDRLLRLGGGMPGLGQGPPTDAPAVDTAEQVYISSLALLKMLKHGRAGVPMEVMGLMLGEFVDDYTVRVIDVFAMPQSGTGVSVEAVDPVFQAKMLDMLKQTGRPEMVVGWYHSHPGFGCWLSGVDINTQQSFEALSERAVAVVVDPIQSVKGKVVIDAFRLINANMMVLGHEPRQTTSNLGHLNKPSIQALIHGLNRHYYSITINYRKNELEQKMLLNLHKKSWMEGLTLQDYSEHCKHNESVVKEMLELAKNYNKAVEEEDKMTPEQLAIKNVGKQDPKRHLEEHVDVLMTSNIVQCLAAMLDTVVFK
Chain of Cytochrome P450 3A4 (P08684 whole entry): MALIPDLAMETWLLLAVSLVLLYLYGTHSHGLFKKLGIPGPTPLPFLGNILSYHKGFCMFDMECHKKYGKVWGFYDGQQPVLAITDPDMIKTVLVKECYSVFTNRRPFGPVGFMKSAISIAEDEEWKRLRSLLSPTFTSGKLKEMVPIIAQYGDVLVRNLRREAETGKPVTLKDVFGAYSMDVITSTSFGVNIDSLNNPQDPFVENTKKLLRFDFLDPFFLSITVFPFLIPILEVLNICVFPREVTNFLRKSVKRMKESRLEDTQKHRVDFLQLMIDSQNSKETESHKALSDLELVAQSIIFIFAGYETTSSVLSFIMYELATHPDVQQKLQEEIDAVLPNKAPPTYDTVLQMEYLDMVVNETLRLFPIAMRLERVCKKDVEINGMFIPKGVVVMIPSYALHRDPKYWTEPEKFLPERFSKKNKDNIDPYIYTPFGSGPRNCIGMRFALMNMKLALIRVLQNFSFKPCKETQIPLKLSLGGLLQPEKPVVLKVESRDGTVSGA
Chain of 72 kDa type IV collagenase (P08253 whole entry): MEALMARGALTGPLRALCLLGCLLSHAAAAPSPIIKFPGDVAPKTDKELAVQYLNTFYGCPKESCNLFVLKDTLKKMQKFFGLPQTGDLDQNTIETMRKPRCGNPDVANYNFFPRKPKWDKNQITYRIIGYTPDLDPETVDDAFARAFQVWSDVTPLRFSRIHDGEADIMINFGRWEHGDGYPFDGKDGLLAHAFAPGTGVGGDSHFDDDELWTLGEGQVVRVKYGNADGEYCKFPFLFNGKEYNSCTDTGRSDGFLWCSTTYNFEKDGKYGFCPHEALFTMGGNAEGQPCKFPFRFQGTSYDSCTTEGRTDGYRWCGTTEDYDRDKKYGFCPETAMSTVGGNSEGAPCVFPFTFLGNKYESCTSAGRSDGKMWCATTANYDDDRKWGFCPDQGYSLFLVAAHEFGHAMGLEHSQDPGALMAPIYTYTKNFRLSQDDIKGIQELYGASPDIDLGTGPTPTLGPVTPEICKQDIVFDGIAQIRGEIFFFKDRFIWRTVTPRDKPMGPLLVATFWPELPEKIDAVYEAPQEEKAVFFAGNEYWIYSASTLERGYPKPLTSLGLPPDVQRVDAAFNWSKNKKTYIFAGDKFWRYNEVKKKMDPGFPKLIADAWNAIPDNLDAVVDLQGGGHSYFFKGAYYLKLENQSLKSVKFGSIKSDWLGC
Chain of Cytochrome P450 2D6 (P10635 whole entry): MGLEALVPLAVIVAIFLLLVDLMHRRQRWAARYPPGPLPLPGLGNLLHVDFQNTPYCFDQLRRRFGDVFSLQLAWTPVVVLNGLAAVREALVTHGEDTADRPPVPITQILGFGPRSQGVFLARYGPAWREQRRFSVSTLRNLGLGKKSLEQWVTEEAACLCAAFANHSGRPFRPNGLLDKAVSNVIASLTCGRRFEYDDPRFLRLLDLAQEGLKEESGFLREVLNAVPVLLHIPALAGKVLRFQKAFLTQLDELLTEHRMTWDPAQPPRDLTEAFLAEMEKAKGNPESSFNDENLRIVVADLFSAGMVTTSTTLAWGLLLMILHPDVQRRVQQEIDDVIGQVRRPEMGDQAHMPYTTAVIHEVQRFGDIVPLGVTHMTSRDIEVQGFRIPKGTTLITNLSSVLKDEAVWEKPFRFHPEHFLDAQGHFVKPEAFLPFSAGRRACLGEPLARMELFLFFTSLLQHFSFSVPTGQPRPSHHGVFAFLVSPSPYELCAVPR
Chain of Luciferin 4-monooxygenase (P08659 whole entry): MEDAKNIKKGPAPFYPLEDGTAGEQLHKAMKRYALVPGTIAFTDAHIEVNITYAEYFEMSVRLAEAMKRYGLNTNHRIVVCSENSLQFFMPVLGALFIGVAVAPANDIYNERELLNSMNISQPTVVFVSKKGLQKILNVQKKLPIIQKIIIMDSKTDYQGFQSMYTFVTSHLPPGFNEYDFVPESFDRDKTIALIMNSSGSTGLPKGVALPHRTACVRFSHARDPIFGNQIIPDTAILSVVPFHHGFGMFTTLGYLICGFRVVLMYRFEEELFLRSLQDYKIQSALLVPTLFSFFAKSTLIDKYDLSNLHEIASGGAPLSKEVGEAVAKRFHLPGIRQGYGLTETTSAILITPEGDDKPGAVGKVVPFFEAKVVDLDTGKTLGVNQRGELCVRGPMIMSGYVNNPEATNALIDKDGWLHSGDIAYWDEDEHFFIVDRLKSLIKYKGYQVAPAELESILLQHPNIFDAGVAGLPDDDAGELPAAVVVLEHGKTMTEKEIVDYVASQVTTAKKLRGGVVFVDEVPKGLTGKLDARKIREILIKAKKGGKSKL

`CCCCOc1ccccc1C1C(C(=O)OC)=CN(CC)C=C1C(=O)OC`: the EC50 in experiment [1] is > 112 µM (not active); in [2] it was > 112 µM (not active); in [4], > 53 µM (inactive). Moreover, the IC50 in [3] was 3.74 µM (active); in experiment [5], 16 µM (active).
On to `COc1ccc(Br)cc1CNC(=O)CN1C(=O)C(c2ccccc2)Oc2cccnc21` (stereo not given), for which the IC50 was 14.3 µM (active) in experiment [6] and 31.6 µM (active) in [7].
For `CCOc1ccc(NC(=O)CSc2nc(-c3cccs3)cc(C(F)(F)F)n2)c([N+](=O)[O-])c1`, the EC50 in experiment [8] is > 89.2 µM (inactive).
On to `COc1ccc(C(C(=O)NC2CCCCC2)N(C(=O)c2sc(C)nc2C)c2ccc(OC)cc2)cc1` (stereo not given), for which the IC50 in experiment [3] was 8.51 µM (active); in [5], > 20 µM (inactive). In addition, the EC50 in [4] is > 53 µM (inactive). In addition, in experiment [9], the AC50 was 17.8 µM (inconclusive).
`O=C(CC1N=C2c3ccccc3N=C(SCc3ccc(Cl)cc3)N2C1=O)NCc1ccco1` (stereo not given): the IC50 in experiment [6] was 7.43 µM (active); in experiment [7] it was 23.6 µM (active).
For `O=C(NC(c1ccc(Cl)cc1)c1cccnc1)C1CCN(CCOc2ccc(Cl)cc2Cl)CC1` (stereo not given), in experiment [8], the EC50 was > 89.2 µM (inactive).
As for `O=C1CC(c2cccc(F)c2)SC(N(c2ccccc2)c2ccccc2)=N1` (stereo not given), the IC50 was 9.86 µM (active) in experiment [3] and 16 µM (active) in [5]. In addition, the EC50 in experiment [4] was > 53 µM (inactive). Further, the AC50 was 25.1 µM (inconclusive) in [10], 8.91 µM (inconclusive) in [11] and 17.8 µM (inconclusive) in [12].
As to `Cc1ccc(OC(=O)N(C)C[C@@H]2OCc3cnnn3CCCC(=O)N([C@@H](C)CO)C[C@@H]2C)cc1`, the results for the IC50 in [3] and in experiment [5] were < 0.368 µM (active) and > 20 µM (inactive), respectively. The EC50 in experiment [4] is > 53 µM (inactive).
Regarding `COc1ccccc1N1C(=O)S/C(=C\c2ccc(C)s2)C1=O`, the EC50 in [13] was > 300 µM (not active); in experiment [14] it was 10.1 µM (inconclusive). For the same compound, the IC50 in [15] is 23.5 µM (active); in experiment [16], > 100 µM (inactive); in [17], 36.3 µM (active).
With `Cc1cc(C)c(CN2CCN(CCCn3cnc(C(=O)Nc4ccc(C)c(C)c4)n3)CC2)c(C)c1`, the EC50 in experiment [8] was > 89.2 µM (inactive).
